Reference: patent publication US5843969A, “Protecting agent for organ or tissue” (Teijin Limited, priority 1995, dated 1998)

Columns and labels:
RBL-1 cells = assay: leukotriene B4 production in cultured RBL-1 cells (A23187 stimulated, enzyme immunoassay); format: cell-based
Protocol: RBL-1 cells (Dainippon Pharmaceutical Co.) were cultured in a Dulbecco's Modified Eagle's Medium containing fetal bovine serum in an amount of 10%. The cultured cells were adjusted to 5×10^6 cells/ml. […] After incubated at 37° C. for 5 min, this was immersed into ice and kept for 10 min. Subsequently, 2×10^-5 mol of A23187, Ca-ionophore, was added to the chilled cell suspension to make the final concentration of […], and the cell suspension was incubated again at 37° C. for 15 min. Further, the suspension was held in ice for 10 min. The suspension was subjected to centrifugation at 3000 rpm for 10 min and the cells were removed. Leukotriene B4 (LTB4) level in the supernatant was measured by enzyme immunoassay. […] A significant difference test against the control group was carried out using Bonferroni's test of a multiple comparison.

[1] = test system: ischemia-reperfusion injury model of kidney; assay: renal ischemia-reperfusion injury model in rats, serum creatinine (Cre) level; format: in vivo, SD rat; conditions: 50 mg/kg oral 60 min prior to 60-min ischemia; 24-hour reperfusion; mean ± standard deviation; control 3.6±0.4, sham 0.4±0.0; p<0.05 vs control
Protocol: (§1) An ischemia-reperfusion injury model of kidney for studying effect on the ischemia-reperfusion injury was prepared with a rat as shown below, and the effect of the administration of the active component of the agent of the present invention was studied by using the model animal.
(§2) The abdomen of an SD rat (male, 6 weeks of age) was opened under anesthesia with sodium pentobarbital, the separated left and right renal arteries were clamped with arterial clips to block the blood flow completely, and the kidneys were brought into an ischemic state. After 60-minute ischemia, the artery clamps were released, and blood flow was restarted to bring the kidneys to a reperfused state. After the suture of the opened abdomen, the animal was returned to a cage and allowed to have free access to food and water. […]
(§3) Serum was separated from the obtained blood sample by centrifugation. Blood urea nitrogen (BUN) level and serum creatinine (Cre) level, a parameter for kidney function injury, were determined on the serum using an automated analyzer (Hitachi 7070) by an urease-indophenol method and Jaffe method, respectively.
(§4) 2-(3-Cyano-4-isobutyloxyphenyl)-4-methyl-5-thiazolecarboxylic acid, the active component, was suspended in a 0.5% methylcellulose aqueous solution. […] The results were each expressed as the mean ± standard deviation. […]

[2] = test system: ischemia-reperfusion injury model of kidney; assay: renal ischemia-reperfusion injury model in rats, serum BUN level; format: in vivo, SD rat; conditions: 50 mg/kg oral 60 min prior to 60-min ischemia; 24-hour reperfusion; compared with control group (FIG. 2)
Protocol: as §1, §2, §3, §4

DNFB-sensitized mice [3] = assay: body weight in DNFB-sensitized mice (allergic dermatitis model); format: in vivo, BALB/c mouse; conditions: survived animals
Protocol: (§5) Therefore, the presence of such side effects was examined on the active component of the agent of the present invention by using a mouse allergic dermatitis model.
Hair was removed from the abdomen to the breast of a BALB/c mouse (male, 8 weeks of age) with hair clippers and a shaver. A 0.5% dinitro-fluorobenzene (DNFB) ethanol solution (100 μl head/day) was applied on the hair-removed part one day and two days after the removal of hair to establish sensitization. 2-(3-Cyano-4-isobutyloxyphenyl)-4-methyl-5-thiazolecarboxylic acid, the active component of the present invention, and allopurinol are each suspended in a 0.5% methylcellulose aqueous solution. Each suspension (3, 10, 30 and 100 mg/kg/10 ml/day) was orally administered to an animal at the same time of each DNFB sensitization. The number of animals is 8 for each of a 3- and a 10-mg/kg/10 ml/day group, and 10 for each of a 30- and a 100-mg/kg/10 ml/day group in each of the active component and the allopurinol. As the control group, 10 ml/kg of 0.5% methylcellulose aqueous solution, the solvent for the active component and allopurinol, was administered to each of 8 sensitized animals.
The variations with time of the survival rate and the body weights of the mice administered with the agents were followed up to the 6th day after the final sensitization and recorded. For survived sensitized animals, a 0.3% DNFB acetone-olive oil (4:1) mixed solution (10 μl on each of the obverse and the reverse side of an ear) was applied on one ear to elicit an immune reaction and an acetone-olive oil (4:1) mixed solution (10 μl on each of the obverse and the reverse side of an ear) was applied on the other ear on the sixth day after the final sensitization. The ear thicknesses were measured with a dial thickness gauge (Ozaki Seisakusho, G-1A) before the elicitation, and 24 hr and 48 hr after the elicitation.
(§6) The variations of the body weights and the ear thicknesses were expressed as the mean ± standard deviation for each group. […]

rats = assay: acute toxicity test, single oral administration in rats; format: in vivo, rat; conditions: single oral administration up to 300 mg/kg
Protocol: Further, for the safety evaluation of the agent of the present invention, an acute toxicity test is carried out with rats in terms of 2-(3-cyano-4-isobutyloxyphenyl)-4-methyl-5-thiazolecarboxylic acid as the active component.

DNFB-sensitized mice [4] = assay: ear thickness after elicitation of immune reaction in DNFB-sensitized mice; format: in vivo, BALB/c mouse
Protocol: as §5
(§7) Hair was removed from the abdomen to the breast of a BALB/c mouse (male, 8 weeks of age) with hair clippers and a shaver. A 0.5% dinitro-fluorobenzene (DNFB) ethanol solution (100 μl head/day) was applied on the hair-removed part one day and two days after the removal of hair to establish sensitization. 2-(3-Cyano-4-isobutyloxyphenyl)-4-methyl-5-thiazolecarboxylic acid, the active component of the present invention, and allopurinol are each suspended in a 0.5% methylcellulose aqueous solution. Each suspension (3, 10, 30 and 100 mg/kg/10 ml/day) was orally administered to an animal at the same time of each DNFB sensitization. […]
(§8) The variations with time of the survival rate and the body weights of the mice administered with the agents were followed up to the 6th day after the final sensitization and recorded. […] The ear thicknesses were measured with a dial thickness gauge (Ozaki Seisakusho, G-1A) before the elicitation, and 24 hr and 48 hr after the elicitation.
as §6

DNFB-sensitized mice [5] = assay: survival rate in DNFB-sensitized mice (allergic dermatitis model); format: in vivo, BALB/c mouse; conditions: 3, 10, 30 and 100 mg/kg/day oral; up to 6th day after final sensitization (FIGS. 4A and 4B)
Protocol: as §5, §7, §8, §6

[6] = clinical application; The Journal of Medicine 1984; The Annals of Pharmacotherapy 1993; cited from earlier work

Row | SMILES | LTB4 production (RBL-1 cells; 1×10^-8 mol (final concentration of 10 μM), p<0.001 vs control (FIG. 3)) | serum Cre level [1] | serum BUN level [2] | body weight change (DNFB-sensitized mice [3]; 3, 10, 30 and 100 mg/kg/day oral, up to 6th day after final sensitization (FIG. 5A)) | death of rats (rats) | increase of the ear thickness (DNFB-sensitized mice [4]; 3, 10, 30 and 100 mg/kg/day oral, 24 hr and 48 hr after elicitation (FIG. 6)) | survival rate (DNFB-sensitized mice [5]) | LTB4 production (RBL-1 cells; up to 1×10^-8 mol (final concentration of up to 10 μM) (FIG. 3)) | body weight change (DNFB-sensitized mice [3]; 30 mg/kg oral, p<0.01 vs control (FIG. 5B)) | body weight change (DNFB-sensitized mice [3]; 100 mg/kg oral, p<0.05 vs control (FIG. 5B)) | increase of the ear thickness and allergy reaction (DNFB-sensitized mice [4]; 30 mg/kg oral, after elicitation, p<0.05 vs control (FIG. 6)) | side effects [6]
1 | Cc1nc(-c2ccc(OCC(C)C)c(C#N)c2)sc1C(=O)O [2-(3-cyano-4-isobutyloxyphenyl)-4-methyl-5-thiazolecarboxylic acid] | suppresses the production of LTB4 significantly | 2.3 ± 1.1 mg/dL | exhibited a tendency to suppress the increase of the serum BUN | did not produce a significant change on the body weights of the animals | None of rats died | none of the effect in terms of the increase of the ear thicknesses was observed | all animals were survived, excluding one animal of the 100 mg/kg/day group |  |  |  |  | 
2 | Oc1ncnc2[nH]ncc12 [allopurinol, reference compound] |  |  |  |  |  |  | survival rate decreased dose-dependently with time from a low dose level | had no effect on the production | decreased the body weights of the animals significantly | decreased the body weights of the animals significantly | stimulated the increase of the ear thicknesses, and the allergy reaction significantly | side effects including an allergy reaction during clinical application and occasionally the side effect is so severe that the patient is brought to death
